A short description of one data set: in vivo. The conditions noted are these: male, Beagle, dog.
The conditions of data set [1]: human, cited from earlier work.
For data set [2] the following is noted: human, cited from earlier work. This is another data set of the same source.

Where two headings read alike, the source gives them in different places.

Procedure for in vivo: The purpose of the study was to assess the pharmacokinetics and absolute bioavailability of dexmedetomidine in a group of five Beagle dogs (males, each aged 5 to 8 months and weighing between 7.5 and 9.2 kg) following sublingual spray administration of the different formulations described in Tables 1 and 2.
For sublingual administration, a spray application was administered by one depression of a pump device into the oral cavity under the tongue. In order to ensure proper pump priming, two actuations were performed prior to dosing. Following dose administration, serial blood samples were collected form each subject animal by venipuncture of a jugular vein as follows: 0 (predose), 0.083, 0.167, 0.25, 0.33, 0.5, 1, 2, and 6 hours post-sublingual dose. […] Blood samples were collected in vacutainer tubes containing K2EDTA as anticoagulant, and derived plasma samples were stored frozen until analyzed.

On to `Cc1cccc([C@H](C)c2cnc[nH]2)c1C` [dexmedetomidine, 5-[(1S)-1-(2,3-dimethylphenyl)ethyl]-1H-imidazole], for which, in the data set “in vivo”, the concentration peaked (Cmax) at 0.914 ng/mL and the Tmax (as a rule, the time from dosing to the highest level) was 0.333 h. Also, in data set [1] (i.m. administration), the absolute bioavailability was 73% and the “time to maximum concentration in blood” value is 1.6 to 1.7 h. For the same compound, in data set [1] (i.m. dosing), the mean elimination half-life is 3 h. In data set [1] (i.v. dosing), the mean elimination half-life is 1.5 h. Further, in data set [1] (transdermal administration), the absolute bioavailability is given as 88%, the mean elimination half-life is listed as 5.6 h and the “time to maximum concentration in blood” value was 6 h. For the same compound, in data set [2] (buccal), the apparent elimination half-life is listed as 1.9 h and the “time of maximum concentration” value is “approximately 1.5 h”. Moreover, the mean buccal bioavailability in data set [2] (solution held in mouth without swallowing) is listed as 81.8%.

The record behind these values is patent US20110021588A1, “SUBLINGUAL DEXMEDITOMIDINE COMPOSITIONS AND METHODS OF USE THEREOF” (RECRO PHARMA, INC., priority 2009, published 2011).
